Data from the NIST ThermoML archive (doi:10.1016/j.fluid.2017.03.008).

Columns and labels:
[1] = refractive index (Na D-line) (dimensionless); xn = mol fraction of the nth substance listed; conditions: 101.3 kPa, Liquid, Standard Abbe refractometry
[2] = xn = mol fraction of the nth substance listed; conditions: for surface tension liquid-gas: Ring tensiometer; for viscosity / mass density: 101.3 kPa, Liquid; for viscosity: Capillary tube (Ostwald / Ubbelohde) method; for mass density: Vibrating tube method

C[P+](c1ccccc1)(c1ccccc1)c1ccccc1.[Br-] [methyltriphenylphosphonium bromide] + NCCO
Conditions | mass density, [2] [kg/m3] | refractive index, [1] | surface tension liquid-gas, [2] [mN/m] | viscosity, [2] [mPa·s]
298.15 K, x1 = 0.11 | 1092.9 | 1.50265 | 50.3 | 27.7
298.15 K, x1 = 0.13 | 1099.8 | 1.50587 | 50.2 | 28
298.15 K, x1 = 0.14 | 1107.4 | 1.51187 | 49.3 | 35.5
298.15 K, x1 = 0.16 | 1195.8 | 1.56644 | 48.9 | 128.9
308.15 K, x1 = 0.11 | 1085 | 1.49911 | 49.5 | 20
308.15 K, x1 = 0.13 | 1091.9 | 1.50221 | 49.3 | 20
308.15 K, x1 = 0.14 | 1100 | 1.50794 | 48.4 | 20.7
308.15 K, x1 = 0.16 | 1187.9 | 1.56247 | 48 | 84.9
318.15 K, x1 = 0.11 | 1077.1 | 1.49546 | 48.6 | 13.6
318.15 K, x1 = 0.13 | 1083.8 | 1.49935 | 48.2 | 13.1
318.15 K, x1 = 0.14 | 1092.2 | 1.50501 | 47.6 | 13.6
318.15 K, x1 = 0.16 | 1180.1 | 1.55846 | 47.2 | 37.9
328.15 K, x1 = 0.11 | 1068.9 | 1.49224 | 47.8 | 9.5
328.15 K, x1 = 0.13 | 1075.8 | 1.49519 | 47.2 | 9.1
328.15 K, x1 = 0.14 | 1084.2 | 1.50071 | 46.7 | 10
328.15 K, x1 = 0.16 | 1172.3 | 1.55518 | 46.4 | 25.4
338.15 K, x1 = 0.11 | 1060.8 | 1.48802 | 46.9 | 7
338.15 K, x1 = 0.13 | 1067.6 | 1.49063 | 46.3 | 6.9
338.15 K, x1 = 0.14 | 1076.1 | 1.49733 | 45.9 | 7.5
338.15 K, x1 = 0.16 | 1164.5 | 1.55159 | 45.6 | 15.6
348.15 K, x1 = 0.11 | 1052.7 | 1.48405 | 46.2 | 5.4
348.15 K, x1 = 0.13 | 1059.4 | 1.48631 | 45.3 | 5.4
348.15 K, x1 = 0.14 | 1068 | 1.49343 | 44.9 | 5.6
348.15 K, x1 = 0.16 | 1156.6 | 1.54699 | 44.8 | 10.7
358.15 K, x1 = 0.11 | 1044.7 | 1.47988 | 45.3 | 4.7
358.15 K, x1 = 0.13 | 1051.1 | 1.48215 | 44.4 | 4.8
358.15 K, x1 = 0.14 | 1059.8 | 1.49027 | 44.2 | 4.9
358.15 K, x1 = 0.16 | 1148.8 | 1.54286 | 44 | 9.1

CCCC[N+](CCCC)(CCCC)CCCC.[Br-] [tetrabutylammonium bromide] + NCCO
Conditions | mass density, [2] [kg/m3] | refractive index, [1] | surface tension liquid-gas, [2] [mN/m] | viscosity, [2] [mPa·s]
298.15 K, x1 = 0.14 | 1048.1 | 1.48383 | 36.1 | 22
298.15 K, x1 = 0.16 | 1056.6 | 1.4877 | 36 | 52.9
298.15 K, x1 = 0.2 | 1060.9 | 1.4881 | 35.8 | 80.2
298.15 K, x1 = 0.25 | 1061.6 | 1.49229 | 35.7 | 106.8
308.15 K, x1 = 0.14 | 1038.7 | 1.48033 | 35.7 | 15.5
308.15 K, x1 = 0.16 | 1048 | 1.48423 | 35.6 | 31
308.15 K, x1 = 0.2 | 1053.6 | 1.48464 | 35.4 | 54.7
308.15 K, x1 = 0.25 | 1054.5 | 1.48876 | 35.3 | 77
318.15 K, x1 = 0.14 | 1028.9 | 1.47704 | 35.4 | 12
318.15 K, x1 = 0.16 | 1041.5 | 1.48115 | 35.2 | 21.1
318.15 K, x1 = 0.2 | 1046.4 | 1.48169 | 35 | 38.2
318.15 K, x1 = 0.25 | 1047.3 | 1.48547 | 34.8 | 53.57
328.15 K, x1 = 0.14 | 1018.5 | 1.47349 | 35.1 | 9
328.15 K, x1 = 0.16 | 1034.1 | 1.47778 | 34.9 | 14.4
328.15 K, x1 = 0.2 | 1039.2 | 1.47851 | 34.6 | 20.1
328.15 K, x1 = 0.25 | 1040.2 | 1.48242 | 34.5 | 35.29
338.15 K, x1 = 0.14 | 1010.2 | 1.46989 | 34.7 | 6.8
338.15 K, x1 = 0.16 | 1026.7 | 1.47385 | 34.6 | 9
338.15 K, x1 = 0.2 | 1032 | 1.47541 | 34.3 | 13.4
338.15 K, x1 = 0.25 | 1033.1 | 1.47966 | 34 | 18.6
348.15 K, x1 = 0.14 | 1001.1 | 1.46595 | 34.4 | 5.7
348.15 K, x1 = 0.16 | 1019.3 | 1.46989 | 34.2 | 7.5
348.15 K, x1 = 0.2 | 1024.7 | 1.47164 | 33.9 | 10.5
348.15 K, x1 = 0.25 | 1026.1 | 1.47651 | 33.6 | 13.8
358.15 K, x1 = 0.14 | 992.1 | 1.46234 | 34.1 | 5.2
358.15 K, x1 = 0.16 | 1012 | 1.46632 | 33.9 | 5.2
358.15 K, x1 = 0.2 | 1017.4 | 1.46897 | 33.5 | 8
358.15 K, x1 = 0.25 | 1019 | 1.47303 | 33.2 | 10.2
